Experiments:
[1] = system: ERK1/2; assay: phospho-ERK1/2 immunoblot (MAPK activity) in HC11 cells; assay type: cell-based, mouse; settings: for ability of the Wnt proteins to stimulate ERK1/2 activity: C-HC11 pretreated 1 hr with inhibitor, then Wnt CM for 10 minutes
From the text: The MAPK and PI3K pathways are major signaling cascades downstream of activated ErbB receptors (Olayioye et al., 2000). Antisera specific for the active, phosphorylated forms of ERK1/2 and PKB, the major kinases on the respective pathways, were used to probe for their activity. 50 micrograms of WCL were immunoblotted essentially as described above with the exception that a phospho-ERK1/2 antibody (commercially available, New England Biolabs) or a phosphoPKB antibody was used. Membranes were stripped and reprobed for ERK1/2 (anti-p44/42 ERK, New England Biolabs).
Briefly, conditioned media (CM) from Wnt-HC11 cells prepared as described in Example 1 was tested for its effect on ErbB1 and MAPK activity, essentially as described above. Treatment of C-HC11 cells for 10 min with Wnt1- and Wnt5a-CM stimulated phospho-ERK1/2 levels 5-6-fold, whereas CM from C-HC11 cells had no effect.
To rule out the potential involvement of ErbB1 ligands in mediating the effects of Wnt-containing CM, we used secreted Frizzled-related protein-1 (sFRP-1), which binds Wnt preventing it from binding Fz (Uren et al., 2000). CM from human embryonic kidney (HEK293) cells stably expressing the sFRP1 expression vector or control HEK 293 cells was premixed 1 hr with Wnt-containing CM (1:1) before adding to C-HC11 cultures for 10 min. Simultaneous addition of CM from sFRP1-producing 293 cells with Wnt-containing CM prevented Wnt1 and Wnt5a from increasing phospho-ERK1/2 levels, showing that sFRP1 blocks Wnt signalling through Fz to ErbB1. As a control, the cells were also treated for 10 minutes with EGF in the presence of sFRP1.
To test for a role of metalloproteinases in Wnt-expressing HC11 cells, two metalloproteinase inhibitors were used, namely phenanthroline (Calbiochem), a metal ion chelator, or CGS27023A, an enzymatic inhibitor (Wang et al., 1999). Cells were treated for 1 hour with phenathroline, CGS27023A, (both at 50μM) or DMSO carrier. ErbB1 was immunoprecipitated from 500 micrograms WCL and immunoblotted with a phosphotyrosine specific antibody, essentially as described above. Membranes were stripped and reprobed for ErbB1. ERK1/2 was probed from 50 micrograms of WCL, immunoblotted with a phospho-ERK1/2 antibody, essentially as described above. Membranes were stripped and reprobed for ERK1/2.
The metalloproteinase inhibitors were next tested in the presence of Wnt-containing CM. C-HC11 cultures were pretreated 1 hr with metalloproteinase inhibitors before treatment with CM from C- or Wnt-HC11 cells for 10 minutes. Phospho-ERK1/2 levels were determined as above. Phenanthroline and CGS 27023A each blocked the ability of the Wnt proteins to stimulate ERK1/2 activity in C-HC11 cells. Similar results were obtained with HC11 cells constitutively expressing the Wnt proteins. Thus, Wnt-mediated activation of ErbB1 and ERK is dependent on a metalloproteinase activity.

[2] = system: cyclin D1; assay: Cyclin D1 immunoblot in HC11 cells; assay type: cell-based, mouse; settings: Wnt1- and Wnt5a-HC11 cells treated 6 hr
Description: Briefly, WCL was prepared from HC11, Wnt1- and Wnt5a-expressing HC11 cells and 50 μg immunoblotted essentially as described above using commercially available antibodies against cyclin D1 (NovaCastra) or cyclin D2 (SantaCruz). Both Wnt1- and Wnt5a-HC11 cells express higher levels of cyclin D1, in comparison to HC11 cells. In addition, Wnt1-HC11 cells but not C- or Wnt5a-HC11 cells express cyclin D2.
C-HC11 cells were also treated 6 hrs with CM from Wnt-HC11 cells. WCL were prepared and 50 μg was immunoblotted for Cyclin D1 or Cyclin D2. Similar to the results with the Wnt-HC11 cell lines, both Wnts (CM) stimulated Cyclin D1 expression, while only Wnt1 enhanced cyclin D2 levels.
To assess the contribution of Wnt-transactivated ErbB1 on cyclin D1 and D2 expression, C- and Wnt-HC11 cells were treated 6 hr with PKI166 or CGS27023A or EGF. […] In contrast, the ErbB1 inhibitor had no effect on cyclin D2 levels. […] Thus, cyclin D1 and cyclin D2 are differentially controlled. Both Wnt1 and Wnt5a transactivate ErbB1, which results in increased expression of cyclin D1; in contrast cyclinD2 is only elevated in Wnt1 expressing cells and this is independent of ErbB1 activity.

[3] = system: cyclin D2; assay: Cyclin D2 immunoblot in HC11 cells; assay type: cell-based, mouse; settings: Wnt-HC11 cells treated 6 hr
Description: Briefly, WCL was prepared from HC11, Wnt1- and Wnt5a-expressing HC11 cells and 50 μg immunoblotted essentially as described above using commercially available antibodies against cyclin D1 (NovaCastra) or cyclin D2 (SantaCruz). Both Wnt1- and Wnt5a-HC11 cells express higher levels of cyclin D1, in comparison to HC11 cells. In addition, Wnt1-HC11 cells but not C- or Wnt5a-HC11 cells express cyclin D2. C-HC11 cells were also treated 6 hrs with CM from Wnt-HC11 cells. WCL were prepared and 50 μg was immunoblotted for Cyclin D1 or Cyclin D2. Similar to the results with the Wnt-HC11 cell lines, both Wnts (CM) stimulated Cyclin D1 expression, while only Wnt1 enhanced cyclin D2 levels. To assess the contribution of Wnt-transactivated ErbB1 on cyclin D1 and D2 expression, C- and Wnt-HC11 cells were treated 6 hr with PKI166 or CGS27023A or EGF. […] In contrast, the ErbB1 inhibitor had no effect on cyclin D2 levels. […] Thus, cyclin D1 and cyclin D2 are differentially controlled. Both Wnt1 and Wnt5a transactivate ErbB1, which results in increased expression of cyclin D1; in contrast cyclinD2 is only elevated in Wnt1 expressing cells and this is independent of ErbB1 activity.

[4] = biological target: T1, ErbB1 (Mus musculus, UniProt Q01279); assay: ErbB1 immunoprecipitation and phosphotyrosine immunoblot in HC11 cells; assay type: cell-based; settings: Wnt-HC11 cells, 5 microM for 1 hr
T1 construct: endogenous in cells; host or cells: HC11 mammary cells (C-HC11, Wnt1-HC11, Wnt5a-HC11)
Description: ErbB1 is transactivated by many classes of membrane proteins (Carpenter, 1999; Gschwind et al., 2001). However, Wnt/VFz-mediated activation of ErbB1 has not been reported previously. Since ErbB1 tyrosine phosphorylation is an essential step in ErbB1 activation, we examined whether Wnt can activate ErbB1, by immunoprecipitating the receptor form Wnt/HC11 cells and performing a Westem analysis with phosphotyrosine specific antiserum. For these experiments HC11 cells were grown over night in medium without EGF. As a control for ErbB1 activation, C-HC 11 and Wnt-HC11 cells were treated for 10 minutes with 100 ng/ml EGF. An ErbB1 selective kinase inhibitor PKI166 (Traxler et al., 2001) was also used in some experiments. For this, the cells were pretreated 1 hr with 5 microM PKI 166, or left untreated, before preparing WCLs, essentially as described in Example 1.
ErbB1 was immunoprecipitated from 500 micrograms WCL and immunoblotted with a phosphotyrosine specific antibody (anti-phosphotyrosine AG10, Upstate Biotechnology) essentially as described previously (Lane et al., 2000). Membranes were stripped by placing them in 2% SDS, 62.5 mM Tris pH 6.8, 100 mM beta-mercaptoethanol at 60° C. for 30 min. Stripped membranes were reprobed for ErbB1 using a commercially available antibody (antibody 1005,Santa Cruz Biotechnology). […]

T1 sequence (Q01279 25-1210): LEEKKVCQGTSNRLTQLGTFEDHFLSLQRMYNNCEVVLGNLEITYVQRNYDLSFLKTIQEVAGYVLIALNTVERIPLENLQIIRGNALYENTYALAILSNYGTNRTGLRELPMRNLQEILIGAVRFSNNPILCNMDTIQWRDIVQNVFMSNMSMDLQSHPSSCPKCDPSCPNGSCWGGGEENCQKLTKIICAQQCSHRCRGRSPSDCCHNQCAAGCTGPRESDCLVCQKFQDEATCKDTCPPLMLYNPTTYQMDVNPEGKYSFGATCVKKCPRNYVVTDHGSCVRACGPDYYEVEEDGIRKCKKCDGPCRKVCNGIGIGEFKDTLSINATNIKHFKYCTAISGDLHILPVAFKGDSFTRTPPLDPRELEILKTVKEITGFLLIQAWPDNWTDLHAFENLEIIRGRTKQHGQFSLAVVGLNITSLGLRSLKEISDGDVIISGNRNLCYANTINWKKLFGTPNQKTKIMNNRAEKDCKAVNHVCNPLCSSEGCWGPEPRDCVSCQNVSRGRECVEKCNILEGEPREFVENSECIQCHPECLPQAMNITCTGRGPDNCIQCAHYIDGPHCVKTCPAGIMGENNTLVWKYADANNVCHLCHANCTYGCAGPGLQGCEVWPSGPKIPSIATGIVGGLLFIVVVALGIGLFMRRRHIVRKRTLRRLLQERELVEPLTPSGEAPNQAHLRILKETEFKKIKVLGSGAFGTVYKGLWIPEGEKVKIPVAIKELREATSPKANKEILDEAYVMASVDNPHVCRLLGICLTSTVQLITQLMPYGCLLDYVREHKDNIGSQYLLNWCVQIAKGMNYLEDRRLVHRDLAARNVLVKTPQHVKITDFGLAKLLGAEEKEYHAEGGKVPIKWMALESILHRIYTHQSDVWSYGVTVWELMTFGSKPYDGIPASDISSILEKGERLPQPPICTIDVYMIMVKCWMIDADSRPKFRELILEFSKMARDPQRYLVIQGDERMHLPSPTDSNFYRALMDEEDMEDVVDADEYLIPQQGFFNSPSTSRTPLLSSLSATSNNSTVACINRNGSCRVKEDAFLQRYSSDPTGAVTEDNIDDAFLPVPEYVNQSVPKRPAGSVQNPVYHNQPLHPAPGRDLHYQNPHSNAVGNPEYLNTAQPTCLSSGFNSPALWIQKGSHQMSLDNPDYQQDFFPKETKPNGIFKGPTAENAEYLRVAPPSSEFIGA

Compound	ability of the Wnt proteins to stimulate ERK1/2 activity [1]	cyclin D1 level [2]	cyclin D2 levels [3]	decrease of ErbB1's phosphotyrosine level [4]	ability of Wnt-containing CM to stimulate phospho-ERK1/2 levels ([1]; C-HC11 cells pre-treated for 1 hour with inhibitor)	EGF induction of MAPK activity ([1]; C-HC11 cells, pretreatment with inhibitor)	constitutive level of phospho-ERK1/2 ([1]; Wnt-expressing HC11 cells)
COc1ccc(S(=O)(=O)N(Cc2cccnc2)[C@@H](C(=O)NO)C(C)C)cc1 [CGS27023A]	blocked	decreased expression	–	–	–	–	–
C[C@@H](Nc1ncnc2[nH]c(-c3ccc(O)cc3)cc12)c1ccccc1 [PKI166]	–	reduced cyclin D1 to the control level	no effect	approximately 50%	blocked	prevented	reduced the constitutive level of phospho-ERK1/2 to basal
c1cnc2c(c1)ccc1cccnc12 [Phenanthroline, phenanthroline]	blocked	–	–	–	–	–	–
